Assay [1] can be described thus: Motor cortex TMS plasticity: stimulus response curve slope after single and repeated spaced iTBS, randomized double-blind placebo-controlled crossover study. In kind it is in vivo, human. As to conditions: healthy participants (n=20), +30 and +60 minutes, vs placebo condition. The procedure: Methods: A randomized double-blind placebo-controlled crossover study in healthy participants (n=20) was conducted (NCT05081986). Participants completed the study in two experimental sessions separated. In these experiments, the motor cortex was stimulated twice using TMS intermittent theta burst stimulation (iTBS) with a one-hour interval between interventions. In random order, this was done with placebo or D-cycloserine (100 mg) as adjuvant, and then the converse at least one week later. The participants' surface anatomical markers were registered to a template magnetic resonance brain image using Neuronavigation software (ANT Neuro, Germany) to permit neuronavigation and reliable targeting throughout the experiment. Transcranial magnetic stimulation involved a MagPro X100 system with Cool-B70 figure-eight coil (MagVenture, Denmark). The iTBS protocol consisted of 20 trains of bursts of 3-pulses at 50 Hz, repeated at 5 Hz with an 8 second inter-train interval at 80% RMT. Motor evoked potentials (MEPs) from the first-dorsal interosseous muscle were sampled to describe stimulus response curves using CED Signal (Cambridge, England) before and after iTBS. […] EMG data were analyzed offline using MATLAB via custom written scripts as previously described^123. […]

Assay [2] in a line: Wisconsin Card Sorting Task in the OCD randomized double-blind trial. Format: in vivo, human. As to conditions: iTBS+DCS (100 mg), baseline vs after 4 weeks of treatment, compared with iTBS+Placebo and Sham-iTBS. The method, then:
The efficacy of 100 mg DCS as an adjunctive strategy to iTBS to reduce OCD-related cognitive impairment and/or improve cognition in OCD was tested in a randomized double-blind 4-week study described in the Example above. Participants completed the Wisconsin Card Sorting Task at baseline and after 4 weeks of treatment. The preplanned focus was on the percent perseverative errors as an index of executive function, cognitive flexibility and cognitive control.

Molecules are shown by their SMILES. Entries after “also recorded” stand apart in the source; their conditions may differ.

For `N[C@@H]1CON=C1O` [DCS, D-cycloserine], the “change in stimulus response curve (SRC) slope after first (single) iTBS” value in assay [1] (DCS 100 mg as adjuvant to iTBS of motor cortex) is given as “stable after a single iTBS; also recorded: the initial SRC shift at +30 minutes remains stable at +60 minutes”. For the same compound, the “change in stimulus response curve (SRC) slope after second (repeated spaced) iTBS” value in assay [1] (DCS 100 mg, second iTBS 60 minutes after the first) was “compound with spaced repeated iTBS; also recorded: a further shift in SRC slope in the DCS condition at +30 minutes that was sustained at +60 minutes”. Besides, in assay [2], the “percentage of perseverative errors (Wisconsin Card Sorting Task)” value is recorded as “significant reductions in the percentage of perseverative errors; also recorded: decrease in the percent perseverative errors”.

Source of the values: patent US20240415816A1, “ADJUNCTIVE D-CYCLOSERINE AUGMENTATION OF TRANSCRANIAL MAGNETIC STIMULATION (TMS) THERAPY FOR OBSESSIVE COMPULSIVE DISORDER” (MCGRX CORP., priority 2021, published 2024).
